From patent US20150231109A1, “COMBINATIONS (CATECHINS AND METHOTREXATE) FOR USE IN THE TREATMENT OF MELANOMAS” (UNIVERSIDAD DE MURCIA, priority 2012, published 2015) come the findings set out here.

One data set relates to Caco-2. As to the kind of experiment: HPLC/MS/MS intracellular levels of MTX in Caco-2. It is filed as cell-based. Conditions: Caco-2, same MTX treatment (24 h, 1 μM).
A further data set has as its system MITF. Description: ChIP assay, occupancy of MITF on TYR and Pmel17 genes in SK-MEL-28 cells. Format: cell-based. As to conditions: Homo sapiens, SK-MEL-28, MTX 4 h.
Another data set relates to SK-MEL-28 melanoma cells. As to the kind of experiment: HPLC/MS analyses of MTX, TMECG-QM and DHF in whole cell extracts. It is filed as cell-based, human. Conditions: SK-MEL-28 whole cell extracts, 24 h, MTX 1 μM and/or TMECG 10 μM. The protocol: By way of example, the present inventors have shown that an active agent, such as MTX, may be used to increase TYR expression, thereby increasing the conversion of a catechin to its quinone methide form. The inventors have undertaken HPLC analyses of MTX, TMECG-QM, and DHF in whole cell extracts of SK-MEL-28 melanoma cells that were subjected to MTX (1 μM) and TMECG (10 μM) individual and combined treatments (see Table 1).

Data set [1] has as its system B16/F10 primary splenic tumors. As to the kind of experiment: Primary spleen tumors after intrasplenic injection of luciferase-tagged B16/F10 cells. It is filed as in vivo, mouse.
Experimental: C, Luciferase imaging of control and MTX/TMECG-treated mice 12 days post-tumor cell injection. Beetle luciferin (120 mg/kg of mouse) was injected intraperitoneally. The values (means±s.d.) are representative of three independent experiments. *P=0.007; **P=0.002. […] Xenograft tumors treated with DMSO (vehicle) or MTX/TMECG (1 mg/kg/day and 50 mg/kg/day, respectively) over 14-days. […] Representative images taken from two independent experiments (n=5 for each experiment). Scale bar=200 μm and is applicable to both panels. I, B16/F10 melanoma cells, expressing a luciferase reporter, were injected subcutaneously to mice. Mice were divided in two groups (n=7) and treated with vehicle (DMSO) or MTX/TMECG (1 mg/kg/day and 10 mg/kg/day, respectively) over 21-days. Then, tumors were pooled and dissociated. B16/F10 cells extracted from tumors were examined for their sensitivity to the MTX/TMECG combination (1 μM and 10 μM, respectively) using quantification of the luminescence signal (left panel). […] Scale bar refers to all panels. […] Mice were treated with vehicle, MTX (1 mg/kg/day), and/or TMECG (50 mg/kg/day). […] Scale bar refers to all panels.
A, Luciferase imaging of vehicle (control), MTX, and/or TMECG-treated mice 12 days post-tumor cell injection. Firefly luciferin (120 mg/kg of mouse) was injected intraperitoneally. The values are representative of three independent experiments. […] The number of cells was estimated by extrapolation of the experimental luciferase signal to calibration curves. A straight line with a good linear correlation coefficient (0.998) was obtained by plotting luciferase signal vs number of B16/F10-luc2 cells. Treatment of mice (n=6) started 24 hr after tumor induction (Day 1). For all experiments: *p<0.05 with respect to control mice; #p<0.05 with respect to individual MTX or TMECG treatments.
Data set [2] can be described thus: Toxicology in non-tumor inoculated C57BL/6 mice. Format: in vivo, mouse. The protocol: FIGS. 4A-N. MTX and TMECG combination therapy is effective in vivo. A, A375 melanoma cells were included in a human reconstructed skin model and were treated with MTX (1 μM) and/or TMECG (10 μM) for 14 days. B, B16/F10 melanoma cells were injected subcutaneously into C57/B16 mice. Images show tumor size 17 days post-injection in control and treated mice. […] C, Luciferase imaging of control and MTX/TMECG-treated mice 12 days post-tumor cell injection. Beetle luciferin (120 mg/kg of mouse) was injected intraperitoneally. The values (means±s.d.) are representative of three independent experiments. *P=0.007; **P=0.002. D, Bioluminescent imaging of livers at 14 days post-intrasplenic injection of B16-F10-luc-G5 cells from untreated and MTX/TMECG-treated mice are shown. E, Quantification of macrometastases (0-10, 10-25 or >25) after treatment with vehicle (control), MTX (1 mg/kg/day), and/or TMECG (50 mg/kg/day). F, Photomicrograph of H&E-stained, 4 μm formalin-fixed, paraffin-embedded liver sections from control (DMSO) and MTX/TMECG-treated mice (1 and 50 mg/kg/day, respectively) (5× magnification). G, MTX activation of MITF and tyrosinase activates the melanoma-specific antifolate activity of TMECG, leading to depletion of cellular dTTP and apoptosis. H, Sections stained with hematoxylin and eosin show the effect of MTX/TMECG on B16/F10 primary splenic tumors. Xenograft tumors treated with DMSO (vehicle) or MTX/TMECG (1 mg/kg/day and 50 mg/kg/day, respectively) over 14-days. […] Representative images taken from two independent experiments (n=5 for each experiment). Scale bar=200 μm and is applicable to both panels. I, B16/F10 melanoma cells, expressing a luciferase reporter, were injected subcutaneously to mice. Mice were divided in two groups (n=7) and treated with vehicle (DMSO) or MTX/TMECG (1 mg/kg/day and 10 mg/kg/day, respectively) over 21-days. Then, tumors were pooled and dissociated. B16/F10 cells extracted from tumors were examined for their sensitivity to the MTX/TMECG combination (1 μM and 10 μM, respectively) using quantification of the luminescence signal (left panel). J, The histogram represents the number of B16/F10-luc2 cells remaining after 3 days of MTX/TMECG treatment with respect to vehicle treated controls (100%). […] K, The morphology of tumor dissociated B16/F10-luc2 cells before and after of MTX/TMECG treatment. Scale bar refers to all panels. L, Histograms represent the number of copies of TYR mRNA for every 1×10^3 copies of β-actin±SD of three independent experiments. […]
To explore the toxicity of TMECG and MTX, these agents (at indicated concentrations) were administrated intradermally to the back of non-tumor inoculated female C57BL/6 mice (n=10), and body weight monitored every other day. […]

Molecules are shown by their SMILES. Read-outs that look alike come from different tables or passages of the source. Marks after values point to notes of the source that are not given here.

Experimental for MITF: F, Chromatin immunoprecipitation on TYR and Pmel17 genes of control and MTX-treated (4 h, 1 μM) SK-MEL-28 cells with qRT-PCR after immunoprecipitation with IgG, or MITF and HDAC3 antibodies.
The ChIP assay was performed with the Magna ChIP™ G kit from Millipore according to the manufacturer's instructions. […] The cross-linked chromatin was then used for immunoprecipitation with MITF antibody, HDAC3 antibody (positive control) or mouse IgG (negative control). DNA from lysates prior to immunoprecipitation was used as positive input controls.

For the molecule `CN(Cc1cnc2nc(N)nc(N)c2n1)c1ccc(C(=O)N[C@@H](CCC(=O)O)C(=O)O)cc1` [MTX, methotrexate], in the data set on Caco-2, the “intracellular levels of MTX” value was 0.8 ± 0.3 pmol/106 cells. The receptor occupancy at 1 µM with MITF (untreated cells 1.5%, read-out: occupancy of MITF on the TYR promoter with respect to an input control) is 25.2%; in the data set with MITF (untreated cells 5.4%, read-out: occupancy of MITF on the promoter/enhancer of the Pmel17 gene with respect to an input control) it was 45.4%. Besides, the MTX intracellular concentration in the data set on SK-MEL-28 melanoma cells is listed as <0.001* pmol/10^6 cells. The “necrotic areas in splenic tumors” value in data set [1] (14 days treatment, MTX 1 mg/kg/day and/or TMECG 50 mg/kg/day) was 4%±2%. Moreover, the “effect on in vivo luciferase signal” value in data set [1] (MTX or TMECG alone, 12 days post-tumor cell injection) was “around 2 fold”. In addition, the mouse body weight entry is “induced some weight loss” in data set [2] (MTX 10 mg/kg/day) and “no effect” in data set [2] (MTX alone 1 mg/Kg/day).
